Where “and” joins values, the source holds several entries; their conditions need not be identical. Identical values can stand only once. Toxic doses and inconclusive results are not listed.
Tested on: L1210 leukemia ip in BDF1 mice, survival T/C
Experiment: NCI In Vivo Anticancer Drug Screen. Data for tumor model L1210 Leukemia (intraperitoneal) in B6D2F1 (BDF1) mice
Settings: endpoint: mean survival time, higher = longer survival
Outline: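 Transplantable tumor model; survival measured in treated vs vehicle control mice. Value = treated/control.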

[1] = dose: 25.0 mg/kg/injection, schedule: Q04DX003 (ip), vehicle: Klucel (hydroxypropylcellulose) (HPC)
[2] = dose: 50.0 mg/kg/injection, schedule: Q01DX009 (ip), vehicle: Klucel (hydroxypropylcellulose) (HPC)
[3] = dose: 50.0 mg/kg/injection, schedule: Q04DX003 (ip), vehicle: Klucel (hydroxypropylcellulose) (HPC)
[4] = dose: 100.0 mg/kg/injection, schedule: Q01DX009 (ip), vehicle: Klucel (hydroxypropylcellulose) (HPC)
[5] = dose: 100.0 mg/kg/injection, schedule: Q04DX003 (ip), vehicle: Klucel (hydroxypropylcellulose) (HPC)
[6] = dose: 100.0 mg/kg/injection, schedule: Q01DX001 (ip), vehicle: saline
[7] = dose: 200.0 mg/kg/injection, schedule: Q01DX001 (ip), vehicle: saline
[8] = dose: 400.0 mg/kg/injection, schedule: Q01DX001 (ip), vehicle: saline
[9] = dose: 100.0 mg/kg/injection, schedule: Q04DX002 (ip), vehicle: Klucel (hydroxypropylcellulose) (HPC)
[10] = dose: 200.0 mg/kg/injection, schedule: Q04DX002 (ip), vehicle: Klucel (hydroxypropylcellulose) (HPC)
[11] = dose: 400.0 mg/kg/injection, schedule: Q04DX002 (ip), vehicle: Klucel (hydroxypropylcellulose) (HPC)
[12] = dose: 100.0 mg/kg/injection, schedule: Q04DX003 (ip), vehicle: saline
[13] = dose: 200.0 mg/kg/injection, schedule: Q04DX003 (ip), vehicle: saline
[14] = dose: 400.0 mg/kg/injection, schedule: Q04DX003 (ip), vehicle: saline
[15] = dose: 200.0 mg/kg/injection, schedule: Q04DX003 (ip), vehicle: Klucel (hydroxypropylcellulose) (HPC)
[16] = dose: 100.0 mg/kg/injection, schedule: Q01DX009 (ip), vehicle: saline with Tween-80
[17] = dose: 200.0 mg/kg/injection, schedule: Q01DX009 (ip), vehicle: saline with Tween-80
[18] = dose: 400.0 mg/kg/injection, schedule: Q01DX009 (ip), vehicle: saline with Tween-80
[19] = dose: 400.0 mg/kg/injection, schedule: Q04DX003 (ip), vehicle: Klucel (hydroxypropylcellulose) (HPC)
[20] = dose: 200.0 mg/kg/injection, schedule: Q01DX009 (ip), vehicle: Klucel (hydroxypropylcellulose) (HPC)
[21] = dose: 400.0 mg/kg/injection, schedule: Q01DX009 (ip), vehicle: Klucel (hydroxypropylcellulose) (HPC)
[22] = dose: 100.0 mg/kg/injection, schedule: Q01DX001 (ip), vehicle: saline with Tween-80
[23] = dose: 200.0 mg/kg/injection, schedule: Q01DX001 (ip), vehicle: saline with Tween-80
[24] = dose: 400.0 mg/kg/injection, schedule: Q01DX001 (ip), vehicle: saline with Tween-80
[25] = dose: 100.0 mg/kg/injection, schedule: Q04DX003 (ip), vehicle: saline with Tween-80
[26] = dose: 200.0 mg/kg/injection, schedule: Q04DX003 (ip), vehicle: saline with Tween-80
[27] = dose: 400.0 mg/kg/injection, schedule: Q04DX003 (ip), vehicle: saline with Tween-80

O=C1c2ccccc2C(=O)C(Cl)C1Cl (centres undefined)
T/C (dose: 1.56 mg/kg/injection, schedule: Q04DX003 (ip), vehicle: other): 97 % of control | T/C (dose: 3.13 mg/kg/injection, schedule: Q04DX003 (ip), vehicle: other): 92 % of control | T/C (dose: 6.25 mg/kg/injection, schedule: Q04DX003 (ip), vehicle: other): 96 % of control and 100 % of control

Cc1ccc(N)cn1
T/C (dose: 25.0 mg/kg/injection, schedule: Q01DX009 (ip), vehicle: Klucel (hydroxypropylcellulose) (HPC)): 97 % of control | T/C [1]: 102 % of control | T/C [2]: 100 % of control | T/C [3]: 101 % of control | T/C [4]: 90 % of control | T/C [5]: 98 % of control

CCOC(=O)C(Cc1c[nH]c2cc(N(CCO)CCO)ccc12)(NC(C)=O)C(=O)OCC
T/C [6]: 97 % of control | T/C [7]: 101 % of control | T/C [8]: 98 % of control

O=C(NC1CCCCC1)Oc1ccc(Cl)cc1Cl
T/C [9]: 93 % of control | T/C [10]: 96 % of control | T/C [11]: 93 % of control

O=S(=O)(C1CC1c1ccccc1)N1CCCc2ccccc21 (centres undefined)
T/C [6]: 103 % of control | T/C [12]: 98 % of control | T/C [7]: 103 % of control | T/C [13]: 98 % of control | T/C [8]: 95 % of control | T/C [14]: 104 % of control

CCOC(=O)C1C(=O)NC(C(=O)OCC)(C(=O)OCC)C1C(C)C (centres undefined)
T/C [3]: 96 % of control | T/C [5]: 100 % of control | T/C [15]: 96 % of control

CCOC1=CC(=O)C(C)(CC=C(C)C)C(C)C1 (centres undefined)
T/C (dose: 50.0 mg/kg/injection, schedule: Q01DX009 (ip), vehicle: saline with Tween-80): 100 % of control | T/C [16]: 92 % of control | T/C [17]: 96 % of control

NC(=O)C1CCC1C(N)=O (centres undefined)
T/C [16]: 108 % of control | T/C [17]: 101 % of control | T/C [18]: 103 % of control

O=NN(CCCl)C(=O)NC1CCCCCCCCCCC1
T/C (dose: 2.5 mg/kg/injection, schedule: Q01DX001 (ip), vehicle: carboxymethylcellulose (CMC)): 114 % of control | T/C (dose: 5.0 mg/kg/injection, schedule: Q01DX001 (ip), vehicle: carboxymethylcellulose (CMC)): 120 % of control | T/C (dose: 8.0 mg/kg/injection, schedule: Q01DX001 (ip), vehicle: carboxymethylcellulose (CMC)): 123 % of control | T/C (dose: 12.0 mg/kg/injection, schedule: Q01DX001 (ip), vehicle: carboxymethylcellulose (CMC)): 121 % of control | T/C (dose: 187.0 mg/kg/injection, schedule: Q01DX001 (ip), vehicle: carboxymethylcellulose (CMC)): 166 % of control | T/C (dose: 250.0 mg/kg/injection, schedule: Q01DX001 (ip), vehicle: carboxymethylcellulose (CMC)): 153 % of control | T/C (dose: 375.0 mg/kg/injection, schedule: Q01DX001 (ip), vehicle: carboxymethylcellulose (CMC)): 160 % of control | T/C (dose: 500.0 mg/kg/injection, schedule: Q01DX001 (ip), vehicle: carboxymethylcellulose (CMC)): 174 % of control | T/C (dose: 555.0 mg/kg/injection, schedule: Q01DX001 (ip), vehicle: other): 172 % of control | T/C (dose: 596.0 mg/kg/injection, schedule: Q01DX001 (ip), vehicle: other): 155 % of control | T/C (dose: 750.0 mg/kg/injection, schedule: Q01DX001 (ip), vehicle: carboxymethylcellulose (CMC)): 233 % of control | T/C (dose: 838.0 mg/kg/injection, schedule: Q01DX001 (ip), vehicle: other): 221 % of control | T/C (dose: 1000.0 mg/kg/injection, schedule: Q01DX001 (ip), vehicle: carboxymethylcellulose (CMC)): 247 % of control | T/C (dose: 1192.0 mg/kg/injection, schedule: Q01DX001 (ip), vehicle: other): 185 % of control | T/C (dose: 1250.0 mg/kg/injection, schedule: Q01DX001 (ip), vehicle: other): 274 % of control | T/C (dose: 1500.0 mg/kg/injection, schedule: Q01DX001 (ip), vehicle: other): 167 % of control | T/C (dose: 1875.0 mg/kg/injection, schedule: Q01DX001 (ip), vehicle: other): 261 % of control | T/C (dose: 2000.0 mg/kg/injection, schedule: Q01DX001 (ip), vehicle: other): 91 % of control | T/C (dose: 2384.0 mg/kg/injection, schedule: Q01DX001 (ip), vehicle: other): 178 % of control

COc1cc([N+](=O)[O-])ccc1C#N
T/C [5]: 113 % of control | T/C [19]: 96 % of control

CCCCN1COC(OCC)C(C)(C)C1 (centres undefined)
T/C (dose: 75.0 mg/kg/injection, schedule: Q01DX009 (ip), vehicle: saline): 116 % of control | T/C (dose: 150.0 mg/kg/injection, schedule: Q01DX009 (ip), vehicle: saline): 113 % of control | T/C (dose: 300.0 mg/kg/injection, schedule: Q01DX009 (ip), vehicle: saline): 112 % of control

COc1ccc(S(=O)(=O)F)cc1NC(=O)NCc1ccc([N+](=O)[O-])cc1
T/C [4]: 103 % of control | T/C [20]: 110 % of control | T/C [21]: 108 % of control

COC(=O)C(C)CC(C)(C=O)OC (centres undefined)
T/C [12]: 93 % of control | T/C [13]: 89 % of control | T/C [14]: 89 % of control

N#Cc1ccc(OCCCCOc2ccc([N+](=O)[O-])cc2Cl)cc1
T/C [4]: 91 % of control | T/C [20]: 95 % of control | T/C [21]: 101 % of control

Cc1nc2[nH][nH]c(=O)c2nc1C
T/C [2]: 94 % of control | T/C [4]: 100 % of control | T/C [5]: 97 % of control | T/C [20]: 94 % of control | T/C [15]: 105 % of control | T/C [19]: 102 % of control

C/C=C/CCCCCCCC
T/C [22]: 93 % of control | T/C [23]: 95 % of control | T/C [24]: 96 % of control

O=S1(=O)C=C(Br)CC1
T/C (dose: 75.0 mg/kg/injection, schedule: Q01DX001 (ip), vehicle: saline with Tween-80): 97 % of control | T/C (dose: 150.0 mg/kg/injection, schedule: Q01DX001 (ip), vehicle: saline with Tween-80): 97 % of control | T/C (dose: 300.0 mg/kg/injection, schedule: Q01DX001 (ip), vehicle: saline with Tween-80): 95 % of control

C=CCNC(=O)CS(=O)(=O)c1ccc(C)cc1
T/C [25]: 94 % of control | T/C [26]: 100 % of control | T/C [27]: 96 % of control

CCN(CC)CCOc1cccc(O)c1
T/C [1]: 94 % of control | T/C [3]: 97 % of control | T/C (dose: 100.0 mg/kg/injection, schedule: Q01DX001 (ip), vehicle: Klucel (hydroxypropylcellulose) (HPC)): 93 % of control | T/C [5]: 100 % of control and 107 % of control | T/C (dose: 200.0 mg/kg/injection, schedule: Q01DX001 (ip), vehicle: Klucel (hydroxypropylcellulose) (HPC)): 91 % of control

O=C1OCCC1[P+](c1ccccc1)(c1ccccc1)c1ccccc1 (centres undefined)
T/C [6]: 88 % of control

C#CCOCC1CNC(=S)O1 (centres undefined)
T/C [16]: 100 % of control | T/C [25]: 95 % of control | T/C [17]: 98 % of control | T/C [26]: 111 % of control | T/C [18]: 96 % of control | T/C [27]: 97 % of control

CC1=C(C)CC(/C(=N\Nc2ccc([N+](=O)[O-])cc2[N+](=O)[O-])c2ccccc2)CC1 (centres undefined)
T/C [22]: 89 % of control | T/C [23]: 89 % of control | T/C [24]: 96 % of control

O=C1NCC2CCc3c(ccc4ccccc34)N12 (centres undefined)
T/C (dose: 100.0 mg/kg/injection, schedule: Q01DX001 (ip), vehicle: other): 100 % of control | T/C (dose: 200.0 mg/kg/injection, schedule: Q01DX001 (ip), vehicle: other): 94 % of control | T/C (dose: 400.0 mg/kg/injection, schedule: Q01DX001 (ip), vehicle: other): 93 % of control

CC(C)OC(=S)SCC(=O)c1ccc(-c2ccccc2)cc1
T/C [9]: 96 % of control | T/C [10]: 92 % of control | T/C [11]: 96 % of control

Source: PubChem BioAssay AID248 (DTP/NCI, 2004)
